US10239843B2 (CANCER RESEARCH TECHNOLOGY LIMITED, priority 2014, dated 2019)
Like-named read-outs stand apart in the source and are kept apart here.

Legend:
PARG in HeLa cell line = experiment: PARG cell assay (PAR chain immunofluorescence after MMS); assay type: cell-based; conditions: HeLa cells, MMS 50 μg/mL, read-out: PARG Cell IC50 Geomean
Procedure: This method is based on the detection of endogenous levels of poly (ADP) ribose chains present in the nucleus of HeLa cell line using indirect immunofluorescence. MMS stimulation increases PAR chains for up to 25 mins. After that point, PARG is active and breaks down the PAR chains, until by one hour after stimulation no PAR chains are detectable. Inhibition of PARG maintains PAR chains.
Briefly, following compound treatment and treatment with the DNA damaging agent methylmethanesulfonate (MMS), the cell monolayer is fixed, then permeabilised and incubated with a mouse monoclonal antibody raised against multimers of poly(ADP) ribose.
At the end of the 1 h dosing period, MMS was added to duplicates at a final concentration of 50 μg/mL, for a further hour.
Media was tipped off and the cells fixed with 50 μL ice-cold 95% MetOH/PBS for 15 mins at −20° C. Following a PBS wash, 50 μL PBS/0.1% Triton was added to the cells for 20 mins. Following another PBS wash, anti-PAR antibody (Calbiochem AM80) was diluted 1:4000 in a buffer (PBS+0.5% FBS+0.05% Tween20) and added to the cells and incubated overnight at 4° C.
Cells were washed three times with PBS and the plate sealed with a light-proof seal.

Human Full Length PARG = Human Full Length PARG (Homo sapiens (Human), UniProt Q86W56); experiment: PARG enzyme assay (TR-FRET); assay type: biochemical; conditions: read-out: PARG Biochem IC50 Geomean
Sequence of Human Full Length PARG (Q86W56 whole entry): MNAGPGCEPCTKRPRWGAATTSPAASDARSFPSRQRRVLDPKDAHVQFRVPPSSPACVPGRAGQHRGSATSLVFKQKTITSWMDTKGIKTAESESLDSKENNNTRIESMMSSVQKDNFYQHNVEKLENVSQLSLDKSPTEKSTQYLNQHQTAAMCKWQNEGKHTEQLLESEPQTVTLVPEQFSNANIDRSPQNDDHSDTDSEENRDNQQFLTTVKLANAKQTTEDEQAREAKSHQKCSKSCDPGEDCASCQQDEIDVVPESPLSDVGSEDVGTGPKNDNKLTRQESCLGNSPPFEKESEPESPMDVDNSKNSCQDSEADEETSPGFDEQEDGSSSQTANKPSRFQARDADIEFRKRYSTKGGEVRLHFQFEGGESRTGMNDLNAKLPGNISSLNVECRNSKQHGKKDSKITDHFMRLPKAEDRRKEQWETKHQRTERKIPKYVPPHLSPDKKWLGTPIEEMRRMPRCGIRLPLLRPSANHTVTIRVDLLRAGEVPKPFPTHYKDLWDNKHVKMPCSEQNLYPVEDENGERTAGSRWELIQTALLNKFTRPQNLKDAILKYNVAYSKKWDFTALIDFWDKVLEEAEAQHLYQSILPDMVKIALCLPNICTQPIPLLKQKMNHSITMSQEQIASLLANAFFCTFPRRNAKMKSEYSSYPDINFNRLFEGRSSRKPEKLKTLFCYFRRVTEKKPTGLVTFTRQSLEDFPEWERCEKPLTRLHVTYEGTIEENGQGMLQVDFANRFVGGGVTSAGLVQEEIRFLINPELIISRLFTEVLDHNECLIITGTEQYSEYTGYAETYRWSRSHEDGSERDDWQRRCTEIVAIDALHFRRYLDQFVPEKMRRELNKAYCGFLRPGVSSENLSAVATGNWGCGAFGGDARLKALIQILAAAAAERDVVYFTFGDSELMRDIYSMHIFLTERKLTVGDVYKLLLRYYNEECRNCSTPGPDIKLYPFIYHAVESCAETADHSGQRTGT

| Structure (SMILES) | IC50 (PARG in HeLa cell line; Homo sapiens) | IC50 (Human Full Length PARG) | IC50 (PARG in HeLa cell line) |
| --- | --- | --- | --- |
| Cn1cc(Cn2c(=O)c3cc(S(=O)(=O)NC4(C)CC4)ccc3n(CCC3CC3)c2=O)cn1 [Example 296] | 70 nM | 73 nM |  |
| Cn1cc(Cn2c(=O)c3cc(S(=O)(=O)NC4(C)CC4)ccc3n(CC3COC3)c2=O)cn1 [Example 297] | 272 nM | 69 nM |  |
| CCn1c(=O)n(Cc2cc(C)no2)c(=O)c2cc(S(=O)(=O)NC3(C)CC3)ccc21 [Example 304] | 113 nM | 329 nM |  |
| Cc1cc(Cn2c(=O)c3cc(S(=O)(=O)NC4(C)CC4)ccc3n(CC3COC3)c2=O)on1 [Example 305] |  | 340 nM | 323 nM |
| Cc1cc(Cn2nc(NC3CCOCC3)c3ccc(S(=O)(=O)NC4(C)CC4)cc3c2=O)on1 [Example 306] |  | 367 nM | 471 nM |
| Cc1cc(Cn2nc(C(C)C)c3ccc(S(=O)(=O)NC4(C)CC4)cc3c2=O)on1 [Example 310] | 455 nM | 307 nM |  |
| Cc1cc(Cn2nc(C3CC3)c3ccc(S(=O)(=O)NC4(C)CC4)cc3c2=O)on1 [Example 313] |  | 349 nM | 420 nM |
| Cc1cc(Cn2nc(OC3COC3)c3ccc(S(=O)(=O)NC4(C)CC4)cc3c2=O)on1 [Example 317] |  | 487 nM | 912 nM |
| Cc1cc(Cn2nc(CC3CC3)c3ccc(S(=O)(=O)NC4(C)CC4)cc3c2=O)on1 [Example 318] | 319 nM | 352 nM |  |
| Cc1cc(Cn2c(=O)c3cc(S(=O)(=O)NC4(C)CC4)ccc3n(CC3CCOCC3)c2=O)on1 [Example 321] | 195 nM | 138 nM |  |
| CC(=O)Cn1c(=O)n(Cc2cc(C)no2)c(=O)c2cc(S(=O)(=O)NC3(C)CC3)ccc21 [Example 323] | 736 nM | 417 nM |  |
| Cc1cc(Cn2c(=O)c3cc(S(=O)(=O)NC4(C)CC4)ccc3n(CC(F)F)c2=O)on1 [Example 324] | 272 nM | 331 nM |  |
| Cc1cc(Cn2c(=O)c3cc(S(=O)(=O)NC4(C)CC4)ccc3n(CC(F)(F)F)c2=O)on1 [Example 325] | 320 nM | 431 nM |  |
| Cn1cc(Cn2c(=O)c3cc(S(=O)(=O)NC4(C)CC4)ccc3n(Cc3cnn(C)c3)c2=O)cn1 [Example 328] | 116 nM | 48 nM |  |
| Cn1cc(Cn2c(=O)c3cc(S(=O)(=O)NC4(C)CC4)ccc3n(CC3(C)CC3(F)F)c2=O)cn1 (stereo not drawn) [Example 329] | 129 nM | 114 nM |  |
| Cc1cc(Cn2c(=O)c3cc(S(=O)(=O)NC4(C)CC4)ccc3n(Cc3cnn(C)c3)c2=O)on1 [Example 330] | 164 nM | 96 nM |  |
| CCOC(=O)Cn1c(=O)n(Cc2cc(C)no2)c(=O)c2cc(S(=O)(=O)NC3(C)CC3)ccc21 [Example 332] | 462 nM | 356 nM |  |
| Cn1cc(Cn2c(=O)[nH]c3ccc(S(=O)(=O)NC4(C#N)CC4)cc3c2=O)cn1 [Example 336, N-(1-Cyanocyclopropyl)-3-[(1-methylpyrazol-4-yl)methyl]-2,4-dioxo-1H-quinazoline-6-sulfonamide] |  | 401 nM | 17900 nM |
| Cc1cc(Cn2c(=O)c3cc(S(=O)(=O)NC4(C)CC4)ccc3n(CCO)c2=O)on1 [Example 337] | 772 nM | 417 nM |  |
| Cc1cc(Cn2c(=O)c3cc(S(=O)(=O)NC4(C)CC4)ccc3n(C3COC3)c2=O)on1 [Example 339] | 487 nM | 479 nM |  |
| Cc1cc(Cn2c(=O)c3cc(S(=O)(=O)NC4(C)CC4)ccc3n(CC3(CO)COC3)c2=O)on1 [Example 340] | 3480 nM | 389 nM |  |
| Cc1cc(Cn2c(=O)c3cc(S(=O)(=O)NC4(C)CC4)ccc3n(CCCN3CCN(C)CC3)c2=O)on1 [Example 342] | 853 nM | 307 nM |  |
| Cn1cc(Cn2c(=O)c3cc(S(=O)(=O)NC4(C)CC4)ccc3n(CC3CCO3)c2=O)cn1 (stereo not drawn) [Example 343] | 351 nM | 195 nM |  |
| Cn1cc(Cn2c(=O)c3cc(S(=O)(=O)NC4(C#N)CC4)ccc3n(C)c2=O)cn1 [Example 344] | 2110 nM | 491 nM |  |
| Cc1cc(Cn2c(=O)n(Cc3cnn(C)c3)c(=O)c3cc(S(=O)(=O)NC4(C#N)CC4)ccc32)n(C)n1 [Example 345] | 2880 nM | 61 nM |  |
| Cn1cc(Cn2c(=O)c3cc(S(=O)(=O)NC4(C#N)CC4)ccc3n(CC3CC3)c2=O)cn1 [Example 346] | 390 nM | 47 nM |  |
| CCn1c(=O)n(Cc2cnn(C)c2)c(=O)c2cc(S(=O)(=O)NC3(C#N)CC3)ccc21 [Example 347] | 916 nM | 210 nM |  |

| Structure (SMILES) | IC50 (PARG in HeLa cell line; Homo sapiens) | IC50 (Human Full Length PARG) | IC50 (PARG in HeLa cell line) |
| --- | --- | --- | --- |
| Cn1cc(Cn2c(=O)c3cc(S(=O)(=O)NC4(C)CC4)ccc3n(CC3(F)COC3)c2=O)cn1 [Example 348] | 328 nM | 101 nM |  |
| Cc1cc(Cn2c(=O)c3cc(S(=O)(=O)NC4(C)CC4)ccc3n(CC3CCO3)c2=O)on1 (stereo not drawn) [Example 349] | 632 nM | 252 nM |  |
| Cc1cc(Cn2c(=O)c3cc(S(=O)(=O)NC4(C)CC4)ccc3n(CC3(F)COC3)c2=O)on1 [Example 350] | 341 nM | 320 nM |  |
| Cn1cc(Cn2c(=O)c3cc(S(=O)(=O)NC4(C)CC4)ccc3n(CC3CC(C)(C)O3)c2=O)cn1 (stereo not drawn) [Example 351] | 358 nM | 229 nM |  |
| CCc1nn(Cc2cc(C)no2)c(=O)c2cc(S(=O)(=O)NC3(C)CC3)ccc12 [Example 353] | 574 nM | 408 nM |  |
| Cn1cc(Cn2c(=O)c3cc(S(=O)(=O)NC4(C#N)CC4)ccc3n(CC3COC3)c2=O)cn1 [Example 354] |  | 164 nM | 18000 nM |
| C#CCn1c(=O)n(Cc2cnn(C)c2)c(=O)c2cc(S(=O)(=O)NC3(C#N)CC3)ccc21 [Example 355] | 953 nM | 122 nM |  |
| Cn1cc(Cn2c(=O)c3cc(S(=O)(=O)NC4(C#N)CC4)ccc3n(CC#N)c2=O)cn1 [Example 356] | 16600 nM | 396 nM |  |
| COCCn1c(=O)n(Cc2cnn(C)c2)c(=O)c2cc(S(=O)(=O)NC3(C#N)CC3)ccc21 [Example 357] | 1600 nM | 153 nM |  |
| Cn1cc(Cn2c(=O)c3cc(S(=O)(=O)NC4(C#N)CC4)ccc3n(Cc3ccc(F)cc3)c2=O)cn1 [Example 358] | 346 nM | 59 nM |  |
| Cc1cc(Cn2c(=O)n(Cc3cnn(C)c3)c(=O)c3cc(S(=O)(=O)NC4(C#N)CC4)ccc32)on1 [Example 359] | 1100 nM | 43 nM |  |
| Cc1cc(Cn2c(=O)c3cc(S(=O)(=O)NC4(C)CC4)ccc3n(CC3CCN(C)C3)c2=O)on1 (stereo not drawn) [Example 361] | 1410 nM | 332 nM |  |
| CSCCn1c(=O)n(Cc2cc(C)no2)c(=O)c2cc(S(=O)(=O)NC3(C)CC3)ccc21 [Example 362] | 126 nM | 331 nM |  |
| Cc1cc(Cn2c(=O)c3cc(S(=O)(=O)NC4(C)CC4)ccc3n(CC3CC(F)(F)C3)c2=O)on1 [Example 363] | 382 nM | 353 nM |  |
| Cc1cc(Cn2c(=O)c3cc(S(=O)(=O)NC4(C)CC4)ccc3n(CC3CC3(F)F)c2=O)on1 (stereo not drawn) [Example 364] | 106 nM | 408 nM |  |
| CSCCn1c(=O)n(Cc2cnn(C)c2)c(=O)c2cc(S(=O)(=O)NC3(C)CC3)ccc21 [Example 366] | 30 nM | 160 nM |  |
| CC(=O)Cn1c(=O)n(Cc2cnn(C)c2)c(=O)c2cc(S(=O)(=O)NC3(C)CC3)ccc21 [Example 367] |  | 353 nM | 340 nM |
| Cn1cc(Cn2c(=O)c3cc(S(=O)(=O)NC4(C)CC4)ccc3n(CCC(C)(C)O)c2=O)cn1 [Example 368] |  | 108 nM | 217 nM |
| Cc1cc(Cn2c(=O)c3cc(S(=O)(=O)NC4(C)CC4)ccc3n(CC3CCN(C)CC3)c2=O)on1 [Example 371] | 1110 nM | 258 nM |  |
| CN1CCC(Cn2c(=O)n(Cc3cnn(C)c3)c(=O)c3cc(S(=O)(=O)NC4(C)CC4)ccc32)CC1 [Example 372] | 2140 nM | 146 nM |  |
| Cn1cc(Cn2c(=O)c3cc(S(=O)(=O)NC4(C#N)CC4)ccc3n(CC3(C)COC3)c2=O)cn1 [Example 376] | 14300 nM | 124 nM |  |
| Cn1cc(Cn2c(=O)c3cc(S(=O)(=O)NC4(C#N)CC4)ccc3n(CC3CCOC3)c2=O)cn1 (stereo not drawn) [Example 377] | 3990 nM | 96 nM |  |
| Cn1cc(Cn2c(=O)c3cc(S(=O)(=O)NC4(C#N)CC4)ccc3n(Cc3cnn(C)c3)c2=O)cn1 [Example 378] | 1960 nM | 44 nM |  |
| Cc1cc(Cn2c(=O)n(Cc3cnn(C)c3)c(=O)c3cc(S(=O)(=O)NC4(C)CC4)ccc32)on1 [Example 379] | 77 nM | 35 nM |  |
| Cn1cc(Cn2c(=O)c3cc(S(=O)(=O)NC4(C)CC4)ccc3n(CC3CCSCC3)c2=O)cn1 [Example 380] | 90 nM | 59 nM |  |
| Cc1cc(Cn2c(=O)c3cc(S(=O)(=O)NC4(C)CC4)ccc3n(CC3CCSCC3)c2=O)on1 [Example 381] | 208 nM | 126 nM |  |
| Cn1cc(Cn2c(=O)[nH]c3cc(F)c(S(=O)(=O)NC4(C)CC4)cc3c2=O)cn1 [Example 384, 7-Fluoro-N-(1-methylcyclopropyl)-3-[(1-methylpyrazol-4-yl)methyl]-2,4-dioxo-1H-quinazoline-6-sulfonamide] |  | 374 nM | 974 nM |
